According to paper PMC6277767, “Broad and Region-Specific Impacts of the Synthetic Cannabinoid CP 55,940 in Adolescent and Adult Female Mouse Brains” (Frontiers in Molecular Neuroscience, 2018):

Tested on: CD1 female mouse brain lipidome
Assay: Brain-region lipid levels (HPLC/MS/MS lipidomics) 2 h after single i.p. 3 mg/kg CP 55,940 vs vehicle
Type: in vivo
Procedure: The Bloomington Institutional Animal Care and Use Committee of Indiana University reviewed and approved the animal procedures. Female mice from the CD1 strain were utilized to match our study examining THC’s effects on the brain lipidome ([Leishman et al., 2018]). Mice were given a single i.p. injection of either 3 mg/kg CP or 1:1:18 cremophor:ethanol:saline vehicle (please refer to the section “3 mg/kg CP Is Relevant for Synthetic Cannabinoid Abuse and Has Stronger Effects on the Female Mouse Brain Lipidome During Adolescence” for a justification of dose and use of female mice). Three different age groups were given injections: PND 35 and PND 50 adolescents, and adult mice (PND 113). At least eight mice in each age group received CP and at least eight received vehicle. Matching the THC study time course ([Leishman et al., 2018]), mice were sacrificed via rapid decapitation 2 h after injection. Brains were immediately removed and flash-frozen in liquid nitrogen, and then stored at -80°C until dissections were performed. Brains were dissected on an ice-cold dissection plate into the following regions: STR, HIPP, CER, THAL, CTX, HYP, MID, and STEM. These abbreviations for these brain areas will be used exclusively when discussing the results generated by these specific dissections. Each dissected area was immediately placed in liquid nitrogen and then stored at -80°C until used for lipid extraction.
Tissue extracts were performed as previously described ([Bradshaw et al., 2006]; [Stuart et al., 2013]; [Raboune et al., 2014]; [Leishman et al., 2016a],[b], [2017], [2018]). First, samples were shock frozen in liquid nitrogen, weighed, and transferred to a centrifuge tube. The mass of the largest sample was multiplied by 50 to determine how many milliliters of HPLC-grade methanol (Fisher, Fair Lawn, NJ, United States) to add. Then, samples were spiked with 500 pmol deuterium-labeled NAGly (d8NAGly; Cayman Chemical, Ann Arbor, MI, United States). Samples were placed on ice in darkness for 2 h then individually homogenized and centrifuged at 19,000 × g for 20 min at 20°C. Supernatants were diluted with HPLC water (purified in house) to make a solution of 75% water, 25% supernatant. Lipids were partially purified on C18 solid phase extraction columns (Agilent, Palo Alto, CA, United States). A series of four elutions with 1.5 mL of 60%, 75%, 85%, and 100% methanol were collected ([Stuart et al., 2013]; [Leishman et al., 2016a],[b], [2018]).
As previously described ([Bradshaw et al., 2006]; [Tan et al., 2006]; [Smoum et al., 2010]; [Stuart et al., 2013]; [Tortoriello et al., 2013]; [Raboune et al., 2014]; [Leishman et al., 2016a],[b], [2017], [2018]), samples were analyzed using an Applied Biosystems API 3000 triple quadrupole mass spectrometer with electrospray ionization (Foster City, CA, United States). Using an Agilent XDB-C18 reversed phase analytical column and optimized mobile phase gradients, 20 μL from each elution were chromatographed. Two Shimadzu 10ADvp pumps (Columbia, MD, United States) provided the pressure for gradient elution. Mobile phase A: 20% methanol, 80% water (v/v) and 1 mM ammonium acetate (Sigma, St. Louis, MO, United States). Mobile phase B: 100% methanol, 1 mM ammonium acetate. Every method run began with 0% mobile phase B, reached 100% mobile phase B flowing at 0.2 mL/min, and gradually returned to 0% mobile phase B.
This screening library will be referred to as the lipidome when discussing data from this study. HPLC/MS/MS data were analyzed using Analyst software (Applied Biosystems) ([Bradshaw et al., 2006]; [Tan et al., 2006]; [Stuart et al., 2013]; [Tortoriello et al., 2013]; [Raboune et al., 2014]; [Leishman et al., 2016a],[b], [2017], [2018]). Chromatograms (Supplementary Figure 3) were generated by determining the retention time of analytes from the analytical column with a [M-1] or [M+1] parent peak and a fragmentation peak corresponding to the programmed values. […]

## CCCCCCC(C)(C)c1ccc([C@@H]2C[C@H](O)CC[C@H]2CCCO)c(O)c1 [CP 55,940]
PND 35 MID
  N-palmitoyl phenylalanine level vs vehicle: ↑ (1-1.49 times higher than vehicle)
  N-palmitoyl valine level vs vehicle: ↑↑ (1.50-1.99 times higher than vehicle)
  N-stearoyl methionine level vs vehicle: ↑ (1-1.49 times higher than vehicle)
  N-stearoyl tyrosine level vs vehicle: ↓ (1-1.49 times lower than vehicle)
  PGE2 level vs vehicle: ↑ (1-1.49 times higher than vehicle)
  PGF2α level vs vehicle: ↑ (1-1.49 times higher than vehicle)
  phosphoLEA level vs vehicle: ↑ (1-1.49 times higher than vehicle)
PND 35 STEM
  2-arachidonoyl glycerol level vs vehicle: ↓ (1-1.49 times lower than vehicle)
  2-linoleoyl glycerol level vs vehicle: ↓ (1-1.49 times lower than vehicle)
  N- stearoyl valine level vs vehicle: ↑ (1-1.49 times higher than vehicle)
  N-arachidonoyl GABA level vs vehicle: ↓ (1-1.49 times lower than vehicle)
  N-arachidonoyl taurine level vs vehicle: ↓ (1-1.49 times lower than vehicle)
  N-docosahexaenoyl leucine level vs vehicle: ↑ (1-1.49 times higher than vehicle)
  N-docosahexaenoyl valine level vs vehicle: ↑ (1-1.49 times higher than vehicle)
  N-oleoyl leucine level vs vehicle: ↑ (1-1.49 times higher than vehicle)
  N-oleoyl proline level vs vehicle: ↑ (1-1.49 times higher than vehicle)
  N-oleoyl valine level vs vehicle: ↑ (1-1.49 times higher than vehicle)
  N-palmitoyl leucine level vs vehicle: ↑ (1-1.49 times higher than vehicle)
  N-palmitoyl phenylalanine level vs vehicle: ↑ (1-1.49 times higher than vehicle)
  N-palmitoyl proline level vs vehicle: ↑ (1-1.49 times higher than vehicle)
  N-palmitoyl tryptophan level vs vehicle: ↓ (1-1.49 times lower than vehicle)
  N-palmitoyl valine level vs vehicle: ↑ (1-1.49 times higher than vehicle)
  PGE2 level vs vehicle: ↑ (1-1.49 times higher than vehicle)
PND 35 STEM, 70 detected
  number of lipids changed: 16
PND 35 STR
  2-arachidonoyl glycerol level vs vehicle: ↓ (1-1.49 times lower than vehicle)
  2-linoleoyl glycerol level vs vehicle: ↓↓ (1.50-1.99 times lower than vehicle)
  2-oleoyl glycerol level vs vehicle: ↓ (1-1.49 times lower than vehicle)
  N- stearoyl valine level vs vehicle: ↑ (1-1.49 times higher than vehicle)
  N-arachidonoyl GABA level vs vehicle: ↓↓ (1.50-1.99 times lower than vehicle)
  N-arachidonoyl alanine level vs vehicle: ↓ (1-1.49 times lower than vehicle)
  N-arachidonoyl glycine level vs vehicle: ↓ (1-1.49 times lower than vehicle)
  N-arachidonoyl phenylalanine level vs vehicle: ↓ (1-1.49 times lower than vehicle)
  N-arachidonoyl serine level vs vehicle: ↓↓ (1.50-1.99 times lower than vehicle)
  N-arachidonoyl taurine level vs vehicle: ↓ (1-1.49 times lower than vehicle)
  N-arachidonoyl tyrosine level vs vehicle: ↓ (1-1.49 times lower than vehicle)
  N-docosahexaenoyl GABA level vs vehicle: ↓ (1-1.49 times lower than vehicle)
  N-docosahexaenoyl alanine level vs vehicle: ↓ (1-1.49 times lower than vehicle)
  N-docosahexaenoyl ethanolamine level vs vehicle: ↓ (1-1.49 times lower than vehicle)
  N-docosahexaenoyl leucine level vs vehicle: ↑ (1-1.49 times higher than vehicle)
  N-docosahexaenoyl serine level vs vehicle: ↓ (1-1.49 times lower than vehicle)
  N-oleoyl GABA level vs vehicle: ↓ (1-1.49 times lower than vehicle)
  N-oleoyl alanine level vs vehicle: ↓ (1-1.49 times lower than vehicle)
  N-oleoyl ethanolamine level vs vehicle: ↓↓ (1.50-1.99 times lower than vehicle)
  N-oleoyl glycine level vs vehicle: ↓ (1-1.49 times lower than vehicle)
  N-palmitoyl ethanolamine level vs vehicle: ↓ (1-1.49 times lower than vehicle)
  N-palmitoyl leucine level vs vehicle: ↑ (1-1.49 times higher than vehicle)
  N-palmitoyl valine level vs vehicle: ↑↑ (1.50-1.99 times higher than vehicle)
  N-stearoyl alanine level vs vehicle: ↓ (1-1.49 times lower than vehicle)
  N-stearoyl leucine level vs vehicle: ↓ (1-1.49 times lower than vehicle)
  N-stearoyl serine level vs vehicle: ↓ (1-1.49 times lower than vehicle)
  PGE2 level vs vehicle: ↑ (1-1.49 times higher than vehicle)
